The text below walks through data of paper PMC2758355 (Chemical research in toxicology, 2009).

As a reminder, the Ki is the equilibrium dissociation constant of an inhibitor or competing ligand from its target.

In one data set the test system is ER. The conditions noted are these: cited from earlier work.
The target of data set [1] is T1, ERα (Homo sapiens, UniProt P03372).
T1 sequence (P03372 1-595): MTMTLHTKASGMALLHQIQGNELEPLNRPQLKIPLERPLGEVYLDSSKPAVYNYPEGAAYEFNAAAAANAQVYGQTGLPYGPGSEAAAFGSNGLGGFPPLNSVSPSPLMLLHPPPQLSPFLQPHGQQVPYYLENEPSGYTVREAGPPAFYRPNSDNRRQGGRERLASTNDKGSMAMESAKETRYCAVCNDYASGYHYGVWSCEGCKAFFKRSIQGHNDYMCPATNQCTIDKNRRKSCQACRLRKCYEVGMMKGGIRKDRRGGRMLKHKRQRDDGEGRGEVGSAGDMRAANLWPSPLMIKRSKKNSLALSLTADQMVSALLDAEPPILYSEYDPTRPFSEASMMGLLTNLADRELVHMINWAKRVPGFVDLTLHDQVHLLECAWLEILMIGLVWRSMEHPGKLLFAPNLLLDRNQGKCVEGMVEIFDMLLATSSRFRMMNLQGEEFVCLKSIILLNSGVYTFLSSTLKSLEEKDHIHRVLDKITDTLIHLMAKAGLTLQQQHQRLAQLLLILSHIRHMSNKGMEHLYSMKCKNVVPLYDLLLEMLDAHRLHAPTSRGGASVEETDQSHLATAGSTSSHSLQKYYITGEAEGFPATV
Briefly: Competition binding with [3H]estradiol in MCF-7 cells. The conditions noted are these: for activity in in vitro assays (result in words): binding and transactivation assays, experimental testing; for Ki: competition with radioactive-labeled estradiol.

The conditions of data set [2]: established by JECFA; ref www.fao.org/ag/agn/jecfa-additives; cited from earlier work.
In data set [3] the target is T1, ERα. The conditions noted are these: cited from earlier work.

“Also recorded” adds a separate entry of the source.

As to `CCCCOC(=O)c1ccc(O)cc1` [butyl p-hydroxybenzoate], the “binding to ER (result in words)” value with ER is listed as “known to bind to ER; also recorded: weak binders”.

For the compound `COc1cc(CNC(=O)CCCC/C=C/C(C)C)ccc1O` [capsaicin], on ERα [1], the “activity in in vitro assays (result in words)” value (shortened to “activity in in vitro assays”) was “inactive”.

For the compound `COc1cc(/C=C/C(=O)CC(=O)/C=C/c2ccc(O)c(OC)c2)ccc1O` [curcumin], the “binding to the receptor in the competition assay (result in words)” value on ERα [1] (competitor 1 nM to 0.25 μM) is recorded as “lack binding activity”.

For `CC(Cc1ccc(O)c(O)c1)C(C)Cc1ccc(O)c(O)c1` (centres unmarked) [nordihydroguaiaretic acid], the “binding to ER (result in words)” value with ER is on record as “known to bind to ER; also recorded: nanomolar binding affinity/potency”. For the compound `CCCCCCCCOC(=O)c1cc(O)c(O)c(O)c1` [octyl gallate], on ERα [1], the “activity in in vitro assays” value is recorded as “only the propyl gallate resulted active”. In the case of `CCCOC(=O)c1cc(O)c(O)c(O)c1` [propyl gallate], the acceptable daily intake in data set [2] is listed as 0−1.4 mg/kg. For the same compound, the “transactivation activity (result in words)” value on ERα [3] was “high micromolar range”. In addition, the “activity in in vitro assays” value at ERα [1] is listed as “active”. Also, the Ki was 54 nM at ERα [1] (binding constant, Figure 4a) and 40.7 nM at ERα [1] (pKi). `CCCOC(=O)c1ccc(O)cc1` [propyl p-hydroxybenzoate]: the “binding to ER (result in words)” value in the data set with ER is “known to bind to ER”.
